We go through one substance from paper PMC11126048, “Peptide Toxins from Antarctica: The Nemertean Predator and Scavenger Parborlasia corrugatus (McIntosh, 1876)” (Toxins, 2024).

Assay [1] is described as follows: Bacterial membrane permeabilization assay (carboxyfluorescein leakage from liposomes). In kind it is biochemical, Escherichia coli. The settings on record: E. coli polar lipid extract liposomes, 10 µM lipid, Tris 10 mM pH 7.4, 45 min, carboxyfluorescein fluorescence; EC50 fixed at 50% of maximum leakage (Triton X-100); mean of four experiments; read-out: EC50 liposome leakage. As to the method: Liposomes were manufactured and permeabilization-assayed as described previously. Briefly, lipid films of Escherichia coli polar lipid extract were deposited on round-bottom flask walls. The lipid films were re-suspended at 55 °C in an aqueous solution of 100 mM of 5(6)-carboxyfluorescein in Tris buffer. The suspensions were subjected to repeated extrusion through a 100 nm polycarbonate membrane in order to reduce multilamellar structures and polydispersity. Un-trapped carboxyfluorescein was removed by gel filtration. Membrane permeability was measured by monitoring carboxyfluorescein efflux from the liposomes to the external low-concentration environment, resulting in a loss of self-quenching and an increased fluorescence signal. The 96-well plates were prepared with a 2-fold serial dilution of the peptides in Tris buffer (10 mM, pH 7.4), and controls without peptides (background) and 0.16% Triton X-100 (maximum leakage). The plates were administered a liposome solution to a final lipid concentration of 10 μM in 200 µL. The effects of each peptide concentration on the liposomes were monitored for 45 min, at which point the initial leakage had largely subsided. The results shown represent the mean from four experiments (one for 3624 Da) with standard deviations and are expressed as the percent of total leakage generated with Triton X-100 and subtraction of the baseline value. […]

The conditions of assay [2]: previous experiments; read-out: EC50 liposome leakage, previous experiments; cited from earlier work. As to the method: The ability of the Parborlasia peptides to permeabilize reconstituted E. coli phospholipid membranes was tested in a liposome-based assay. The peptides display the typical steep logarithmic AMP leakage kinetic (Figure 8). […] The 3624 Da peptide was tested in a single experiment series in this assay. The 26-residue long bee venom peptide melittin was used as a reference ...

Where two headings read alike, the source gives them in different places.

The EC50 is the concentration giving half of the maximal effect. Melittin: the EC50 is 300 nM in assay [1] and 400 nM in assay [2].
